{"source": "patent US10648917B2", "about": "“Luminescent compositions and applications thereof” (THE PENN STATE RESEARCH FOUNDATION, priority 2015, dated 2020)", "key": {"[1]": {"experiment": "Photostability under continuous excitation for 3 hours", "assay_type": "physicochemical", "conditions": "for photobleaching relative to Fluorescein and Rhodamine B: 3 hours continuous excitation", "description": "Fluorescence spectra were recorded by a Horiba FluoroMax-4 spectrofluorometer. All samples were measured at a concentration corresponding to an optical density of 0.1 in water and a slit size of 1 nm by 1 nm unless specified. Quantum yields were also determined on same spectrofluorometer by using a Quantum-φ integration sphere at samples' maximum excitation wavelength and at an increment of 0.3 nm. Photostability studies were done by continuously exciting samples at their maximum excitation wavelength and monitoring at the maximum emission wavelength.\nFluorescence spectra were recorded on a Horiba FluoroMax-4 spectrofluorometer (Horiba Scientific, Edison N.J.). All polymer and samples were characterized at a concentration of 2 wt % in 1,4-dioxane and a slit size of 1 nm by 1 nm unless otherwise specified. The fluorescence properties of small molecule dyes were also measure in 2 wt % DI water solutions at same conditions as polymer solutions. BPLPs were also degraded in 1M K2CO3 solution at 37° C. for 24 hours and then neutralized with 1N HCl solution to pH7. The resulting degradation solutions were subject to further PL characterizations. Quantum yields were also determined on the same spectrofluorometer by using a Quantum-φ integration sphere (Horiba Scientific, Edison N.J.) at the same concentration and slit size with the blank solvent as the reference. Photostability of small molecules and polymers were determined by monitoring the emission intensity decay at their max. Excitation and emission wavelengths over 3 hours of continuous lumination in the spectrofluorometer.\nPhotostability of CFDs was characterized thereafter, since traditional organic dyes suffer from photobleaching. Various CFDs were tested under their maximum excitation and emission wavelengths for 3 hours, and the photoluminescence was normalized to the initial intensity."}, "[2]": {"experiment": "Fluorescence spectra, absorbance and quantum yield (spectrofluorometer, integration sphere)", "assay_type": "physicochemical", "conditions": "for Shifting (emission shifting with excitation wavelength): CFD dyes; for Φ (quantum yield) / λem (maximum emission wavelength) / λex (maximum excitation wavelength) / ϵ (extinction coefficiency): Table III"}, "[3]": {"experiment": "Chlorine sensing by fluorescence titration", "assay_type": "physicochemical", "description": "This chlorine detection method seems to be much more sensitive than for halide detection, as chlorine in tap water diluted 1:2 can be measured. Furthermore, because measurement is based on the titration point, the presence of halides in solution would only lower the slope of the fluorescence plots without affecting the titration point. In reverse order of what observed results for halide quenching, sensing of bromine is much less sensitive than chlorine. Visual confirmation of the titration point is possible with a UV lamp, allowing for a low-cost and low-tech method of chlorine determination. It should also be noted that by varying the use of amine-containing molecules used in the syntheses of fluorophores described herein, it was possible to tune the chloride sensing at neutral pH."}, "[4]": {"test_system": "NIH 3T3 mouse fibroblasts", "experiment": "In vitro cytotoxicity, CCK-8 cell viability assay", "assay_type": "cell-based", "conditions": "for cell viability: 24 h", "description": "NIH 3T3 mouse fibroblasts (ATCC) were used as model cells for in vitro cytotoxicity evaluations. The cells were cultured in Dulbecco's modified eagle's medium (DMEM), which had been supplemented with 10% fetal bovine serum (FBS) and 1% penicillin streptomycin. The culture flasks were kept in an incubator maintained at 37° C., 5% CO2, and 95% relative humidity. For a typical cytotoxicity study, 3T3 cells were seeded with a density of 5×10^4 cells/ml. […] of cell suspension in DMEM was added to each well in a 96-well plate and then incubated for 24 h. The culture medium was changed to 100 μL of DMEM containing the CFDs with various concentrations and followed by another 24 h incubator. A CCK-8 cell viability assay was used for a quantitative assessment of the viable cells according to the manufacturer's protocol. Viability of cells was normalized to the control of tissue culture plates (n=5).\nThe in vitro toxicity of CFDs was evaluated by incubating them with NIH 3T3 mouse fibroblasts at different concentrations. […] Therefore, CFDs are generally biocompatible fluorescent compounds that can be used at a high dosage. […] The red fluorescence was relatively weak since CA-Cys has relatively weak red fluorescence emission."}, "[5]": {"conditions": "Dianion protolytic state (physiological pH)"}, "[6]": {"conditions": "2500 μg/ml, vs control (p<0.01)"}}, "note": "Where two headings read alike, the source gives them in different places.", "data": [{"smiles": "O=C(O)c1cc2n(c(=O)c1)C(C(=O)O)CS2", "note": "(stereo not drawn) [CA-Cys]", "values": [{"measurement": "photobleaching relative to Fluorescein and Rhodamine B", "setting": "[1]", "value": "less stable"}, {"measurement": "photostability", "setting": "[1]; FIG. 19", "value": "strong photostability"}, {"measurement": "luminescence lost", "setting": "[1]; after 3 hours continuous excitation", "value": "less than 3%"}, {"measurement": "fluorescence remaining", "setting": "[1]; after continuous UV excitation for 3 hours", "value": 95, "unit": "%"}, {"measurement": "Quantum Yield", "setting": "[2]", "value": "≤ 81", "unit": "%"}, {"measurement": "extinction coefficient", "setting": "[2]", "value": 8640, "unit": "M⁻¹ cm⁻¹"}, {"measurement": "Abs. Max", "setting": "[2]; Anion protolytic state", "value": 354, "unit": "nm"}, {"measurement": "Em. max", "setting": "[2]; Anion protolytic state", "value": 440, "unit": "nm"}, {"measurement": "Exc. max", "setting": "[2]; Anion protolytic state", "value": 360, "unit": "nm"}, {"measurement": "Stokes shift", "setting": "[2]; Anion protolytic state", "value": 80, "unit": "nm"}, {"measurement": "Φ", "setting": "[2]; Anion protolytic state", "value": 67.24, "unit": "%"}, {"measurement": "ε", "setting": "[2]; Anion protolytic state", "value": 7454, "unit": "M⁻¹ cm⁻¹"}, {"measurement": "Shifting (emission shifting with excitation wavelength)", "setting": "[2]", "value": "no fluorescence band shifting was observed and No"}, {"measurement": "Abs. Max", "setting": "[2]; Dianion protolytic state", "value": 346, "unit": "nm"}, {"measurement": "Em. max", "setting": "[2]; Dianion protolytic state", "value": 418, "unit": "nm"}, {"measurement": "Exc. max", "setting": "[2]; Dianion protolytic state", "value": 350, "unit": "nm"}, {"measurement": "Stokes shift", "setting": "[2]; [5]", "value": 67, "unit": "nm"}, {"measurement": "Φ", "setting": "[2]; [5]", "value": 81.20, "unit": "%"}, {"measurement": "ε", "setting": "[2]; [5]", "value": "~8640", "unit": "M⁻¹ cm⁻¹"}, {"measurement": "Abs. Max", "setting": "[2]; Neutral protolytic state", "value": 362, "unit": "nm"}, {"measurement": "Em. max", "setting": "[2]; Neutral protolytic state", "value": 445, "unit": "nm"}, {"measurement": "Exc. max", "setting": "[2]; Neutral protolytic state", "value": 366, "unit": "nm"}, {"measurement": "Stokes shift", "setting": "[2]; Neutral protolytic state", "value": 80, "unit": "nm"}, {"measurement": "Φ", "setting": "[2]; Neutral protolytic state", "value": "Quenched"}, {"measurement": "ε", "setting": "[2]; Neutral protolytic state", "value": "~8300", "unit": "M⁻¹ cm⁻¹"}, {"measurement": "Φ (quantum yield)", "setting": "[2]", "value": 81.4, "unit": "%"}, {"measurement": "λem (maximum emission wavelength)", "setting": "[2]", "value": 445, "unit": "nm"}, {"measurement": "λex (maximum excitation wavelength)", "setting": "[2]", "value": 364, "unit": "nm"}, {"measurement": "ϵ (extinction coefficiency)", "setting": "[2]", "value": 8640, "unit": "M⁻¹ cm⁻¹"}, {"measurement": "quenching in organic solvents compared to water", "setting": "[2]; dioxane, acetone, ethanol, isopropanol, DMSO", "value": "minimal quenching"}, {"measurement": "Max. Em. Wavelength", "setting": "[2]; representative CFDs, Table I", "value": 445, "unit": "nm"}, {"measurement": "Max. Ex. Wavelength", "setting": "[2]; representative CFDs, Table I", "value": 364, "unit": "nm"}, {"measurement": "Quantum Yield", "setting": "[2]; representative CFDs, Table I", "value": 81.4, "unit": "%"}, {"measurement": "sensitivity to chlorine", "setting": "[3]", "value": "sensitive to chlorine"}, {"measurement": "cell viability", "setting": "[4]; 1000 μg/ml, vs control", "value": "no significant decrease in cell viability"}, {"measurement": "cell viability", "setting": "[4]; [6]", "value": "significant decrease"}, {"measurement": "dosage with in-vitro cytocompatibility", "setting": "[4]; 3T3 cell line", "value": "up to 10.3 mM"}]}, {"smiles": "CC(C(=O)O)N1C(=O)C=C(C(=O)O)CC1=O", "note": "(stereo not drawn) [CA-Ala]", "values": [{"measurement": "photobleaching relative to Fluorescein and Rhodamine B", "setting": "[1]", "value": "photobleaching on par with Fluorescein but more resistant than Rhodamine B"}, {"measurement": "Shifting (emission shifting with excitation wavelength)", "setting": "[2]", "value": "Yes"}, {"measurement": "Φ (quantum yield)", "setting": "[2]", "value": 21.2, "unit": "%"}, {"measurement": "λem (maximum emission wavelength)", "setting": "[2]", "value": 430, "unit": "nm"}, {"measurement": "λex (maximum excitation wavelength)", "setting": "[2]", "value": 361, "unit": "nm"}, {"measurement": "ϵ (extinction coefficiency)", "setting": "[2]", "value": 79, "unit": "M⁻¹ cm⁻¹"}, {"measurement": "band-shift effect", "setting": "[2]; in acetone (ε=20.7)", "value": "moderate"}, {"measurement": "band-shift effect", "setting": "[2]; in dichloromethane (ε=8.93)", "value": "minimal"}, {"measurement": "band-shift effect", "setting": "[2]; in water (ε=80.1)", "value": "strongest"}, {"measurement": "Max. Em. Wavelength", "setting": "[2]; representative CFDs, Table I", "value": 430, "unit": "nm"}, {"measurement": "Max. Ex. Wavelength", "setting": "[2]; representative CFDs, Table I", "value": 361, "unit": "nm"}, {"measurement": "Quantum Yield", "setting": "[2]; representative CFDs, Table I", "value": 21.2, "unit": "%"}, {"measurement": "cell viability", "setting": "[4]; 1000 μg/ml, vs control", "value": "no significant decrease in cell viability"}, {"measurement": "cell viability", "setting": "[4]; [6]", "value": "significant decrease"}]}]}
